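These data come from cells grown in 96-well plates and exposed to compound for 48 hours at five concentrations. At the GI50, growth is halved. TGI: concentration producing complete growth inhibition.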
What was measured:
Assay in all cases: DTP human tumour cell line panel, 48 h
786-0 renal = tested on: 786-0 renal
A549 NSCLC = tested on: A549 NSCLC
ACHN renal = tested on: ACHN renal
BT-549 breast = tested on: BT-549 breast
CAKI-1 renal = tested on: CAKI-1 renal
CCRF-CEM leukemia = tested on: CCRF-CEM leukemia
COLO 205 colon = tested on: COLO 205 colon
DU-145 prostate = tested on: DU-145 prostate
EKVX NSCLC = tested on: EKVX NSCLC
HCT-116 colon = tested on: HCT-116 colon
HCT-15 colon = tested on: HCT-15 colon
HOP-62 NSCLC = tested on: HOP-62 NSCLC
HOP-92 NSCLC = tested on: HOP-92 NSCLC
HS 578T breast = tested on: HS 578T breast
HT29 colon = tested on: HT29 colon
IGROV1 ovarian = tested on: IGROV1 ovarian
K-562 leukemia = tested on: K-562 leukemia
KM12 colon = tested on: KM12 colon
LOX IMVI melanoma = tested on: LOX IMVI melanoma
M14 melanoma = tested on: M14 melanoma
MALME-3M melanoma = tested on: MALME-3M melanoma
MCF7 breast = tested on: MCF7 breast
MDA-MB-231 breast = tested on: MDA-MB-231 breast
MDA-MB-435 = tested on: MDA-MB-435
MOLT-4 leukemia = tested on: MOLT-4 leukemia
NCI-H226 lung = tested on: NCI-H226 lung
NCI-H23 lung = tested on: NCI-H23 lung
NCI-H460 lung = tested on: NCI-H460 lung
NCI-H522 lung = tested on: NCI-H522 lung
NCI/ADR-RES ovarian = tested on: NCI/ADR-RES ovarian
OVCAR-3 ovarian = tested on: OVCAR-3 ovarian
OVCAR-4 ovarian = tested on: OVCAR-4 ovarian
OVCAR-5 ovarian = tested on: OVCAR-5 ovarian
OVCAR-8 ovarian = tested on: OVCAR-8 ovarian
PC-3 prostate = tested on: PC-3 prostate
RPMI-8226 leukemia = tested on: RPMI-8226 leukemia
RXF 393 renal = tested on: RXF 393 renal
SF-268 CNS = tested on: SF-268 CNS
SF-295 CNS = tested on: SF-295 CNS
SK-MEL-2 melanoma = tested on: SK-MEL-2 melanoma
SK-MEL-28 melanoma = tested on: SK-MEL-28 melanoma
SK-MEL-5 melanoma = tested on: SK-MEL-5 melanoma
SK-OV-3 ovarian = tested on: SK-OV-3 ovarian
SN12C renal = tested on: SN12C renal
SNB-19 CNS = tested on: SNB-19 CNS
SR leukemia = tested on: SR leukemia
SW-620 colon = tested on: SW-620 colon
T-47D breast = tested on: T-47D breast
TK-10 renal = tested on: TK-10 renal
U251 CNS = tested on: U251 CNS
UACC-62 melanoma = tested on: UACC-62 melanoma
UO-31 renal = tested on: UO-31 renal
A498 renal = tested on: A498 renal
HCC-2998 colon = tested on: HCC-2998 colon
HL-60(TB) leukemia = tested on: HL-60(TB) leukemia
SNB-75 CNS = tested on: SNB-75 CNS
UACC-257 melanoma = tested on: UACC-257 melanoma

## O=C1C(Cl)=C(Nc2cccc(O)c2)C(=O)N1CCc1ccccc1
786-0 renal
  GI50: 19.2 µM
  TGI: 36.6 µM
A549 NSCLC
  GI50: 20.6 µM
  TGI: 46.4 µM
ACHN renal
  GI50: 22.9 µM
  TGI: 47.5 µM
BT-549 breast
  GI50: 17.9 µM
  TGI: 47.1 µM
CAKI-1 renal
  GI50: 22.5 µM
  TGI: 56.3 µM
CCRF-CEM leukemia
  GI50: 12.6 µM
  TGI: 69.4 µM
COLO 205 colon
  GI50: 33.2 µM
  TGI: > 100 µM
DU-145 prostate
  GI50: 15.3 µM
  TGI: 32.5 µM
EKVX NSCLC
  GI50: 19.3 µM
  TGI: 40.9 µM
HCT-116 colon
  GI50: 24.3 µM
  TGI: 73.3 µM
HCT-15 colon
  GI50: 22.4 µM
  TGI: 57.8 µM
HOP-62 NSCLC
  GI50: 19.2 µM
  TGI: 38.4 µM
HOP-92 NSCLC
  GI50: 15.9 µM
  TGI: 36.4 µM
HS 578T breast
  GI50: 17.5 µM
  TGI: 40.5 µM
HT29 colon
  GI50: 24.3 µM
  TGI: 82.5 µM
IGROV1 ovarian
  GI50: 15 µM
  TGI: 35.4 µM
K-562 leukemia
  GI50: 16.8 µM
  TGI: 63.9 µM
KM12 colon
  GI50: 15.5 µM
  TGI: 34 µM
LOX IMVI melanoma
  GI50: 16.9 µM
  TGI: 39.6 µM
M14 melanoma
  GI50: 17.7 µM
  TGI: 37.9 µM
MALME-3M melanoma
  GI50: 16.2 µM
  TGI: 33 µM
MCF7 breast
  GI50: 14.4 µM
  TGI: 33.6 µM
MDA-MB-231 breast
  GI50: 23.3 µM
  TGI: 44.4 µM
MDA-MB-435
  GI50: 15.7 µM
  TGI: 37.1 µM
MOLT-4 leukemia
  GI50: 9.4 µM
  TGI: 59 µM
NCI-H226 lung
  GI50: 22 µM
  TGI: 45.6 µM
NCI-H23 lung
  GI50: 17.7 µM
  TGI: 36.4 µM
NCI-H460 lung
  GI50: 18 µM
  TGI: 39.8 µM
NCI-H522 lung
  GI50: 13.2 µM
  TGI: 29.2 µM
NCI/ADR-RES ovarian
  GI50: 20.1 µM
  TGI: 49 µM
OVCAR-3 ovarian
  GI50: 15.4 µM
  TGI: 34.3 µM
OVCAR-4 ovarian
  GI50: 20.1 µM
  TGI: 55.3 µM
OVCAR-5 ovarian
  GI50: 20.7 µM
  TGI: 46.8 µM
OVCAR-8 ovarian
  GI50: 21.5 µM
  TGI: 51.1 µM
PC-3 prostate
  GI50: 22.3 µM
  TGI: 62.7 µM
RPMI-8226 leukemia
  GI50: 5.03 µM
  TGI: 37.6 µM
RXF 393 renal
  GI50: 25.9 µM
  TGI: 71.4 µM
SF-268 CNS
  GI50: 17 µM
  TGI: 42.2 µM
SF-295 CNS
  GI50: 21.8 µM
  TGI: 46.6 µM
SK-MEL-2 melanoma
  GI50: 14.5 µM
  TGI: 33.7 µM
SK-MEL-28 melanoma
  GI50: 19.8 µM
  TGI: 40.8 µM
SK-MEL-5 melanoma
  GI50: 20.2 µM
  TGI: 38 µM
SK-OV-3 ovarian
  GI50: 32.1 µM
  TGI: > 100 µM
SN12C renal
  GI50: 16 µM
  TGI: 32.6 µM
SNB-19 CNS
  GI50: 22.6 µM
  TGI: 49.4 µM
SR leukemia
  GI50: 4.61 µM
  TGI: 64.3 µM
SW-620 colon
  GI50: 30.9 µM
  TGI: 77.5 µM
T-47D breast
  GI50: 40.5 µM
  TGI: > 100 µM
TK-10 renal
  GI50: 23.1 µM
  TGI: 48.4 µM
U251 CNS
  GI50: 19.1 µM
  TGI: 42.1 µM
UACC-62 melanoma
  GI50: 13.9 µM
  TGI: 29.1 µM
UO-31 renal
  GI50: 16.7 µM
  TGI: 36.8 µM

## COC1CCN(N(C)C)O1 (centres undefined)
786-0 renal
  TGI: > 100 µM
A498 renal
  TGI: > 100 µM
A549 NSCLC
  TGI: > 100 µM
ACHN renal
  TGI: > 100 µM
BT-549 breast
  TGI: > 100 µM
CAKI-1 renal
  TGI: > 100 µM
CCRF-CEM leukemia
  TGI: > 100 µM
COLO 205 colon
  TGI: > 100 µM
DU-145 prostate
  TGI: > 100 µM
EKVX NSCLC
  TGI: > 100 µM
HCC-2998 colon
  TGI: > 100 µM
HCT-116 colon
  TGI: > 100 µM
HCT-15 colon
  TGI: > 100 µM
HL-60(TB) leukemia
  TGI: > 100 µM
HOP-62 NSCLC
  TGI: > 100 µM
HS 578T breast
  TGI: > 100 µM
HT29 colon
  TGI: > 100 µM
IGROV1 ovarian
  TGI: > 100 µM
K-562 leukemia
  TGI: > 100 µM
KM12 colon
  TGI: > 100 µM
LOX IMVI melanoma
  TGI: > 100 µM
M14 melanoma
  TGI: > 100 µM
MALME-3M melanoma
  TGI: > 100 µM
MCF7 breast
  TGI: > 100 µM
MDA-MB-231 breast
  TGI: > 100 µM
MDA-MB-435
  TGI: > 100 µM
MOLT-4 leukemia
  TGI: > 100 µM
NCI-H226 lung
  TGI: > 100 µM
NCI-H23 lung
  TGI: > 100 µM
NCI-H460 lung
  TGI: > 100 µM
NCI-H522 lung
  TGI: > 100 µM
NCI/ADR-RES ovarian
  TGI: > 100 µM
OVCAR-3 ovarian
  TGI: > 100 µM
OVCAR-4 ovarian
  TGI: > 100 µM
OVCAR-5 ovarian
  TGI: > 100 µM
OVCAR-8 ovarian
  TGI: > 100 µM
PC-3 prostate
  TGI: > 100 µM
RPMI-8226 leukemia
  TGI: > 100 µM
RXF 393 renal
  TGI: > 100 µM
SF-268 CNS
  TGI: > 100 µM
SF-295 CNS
  TGI: > 100 µM
SK-MEL-2 melanoma
  TGI: > 100 µM
SK-MEL-28 melanoma
  TGI: > 100 µM
SK-MEL-5 melanoma
  TGI: > 100 µM
SN12C renal
  TGI: > 100 µM
SNB-19 CNS
  TGI: > 100 µM
SNB-75 CNS
  TGI: > 100 µM
SR leukemia
  TGI: > 100 µM
SW-620 colon
  TGI: > 100 µM
T-47D breast
  TGI: > 100 µM
TK-10 renal
  TGI: > 100 µM
U251 CNS
  TGI: > 100 µM
UACC-257 melanoma
  TGI: > 100 µM
UACC-62 melanoma
  TGI: > 100 µM
UO-31 renal
  TGI: > 100 µM

— PubChem BioAssay (NCI)
